{"source": "patent US11370798B2", "about": "(Vertex Pharmaceuticals Incorporated, priority 2012, dated 2022)"}
{"tested_on": "HCT116 colorectal cancer cells", "experiment": "Cisplatin sensitization assay (96 h cell viability MTS);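 note: Test-compound concentration that lowers the Cisplatin IC50 by a set fold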", "type": "cell-based", "conditions": "compound and Cisplatin added simultaneously, Cisplatin sensitization value", "procedure,_shortened": "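Viability read by MTS (1 h at 37° C) after 96 h co-exposure at 37° C, 5% CO2. Test compound and cisplatin were dosed simultaneously in a full concentration matrix, each 2-fold serially diluted from 10 μM final; sensitization values binned in μM.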"}
{"smiles": "Nc1nn2cc(F)cnc2c1C(=O)Nc1cncc(F)c1N1CCNCC1", "note": "[I-N-118, 2-amino-6-fluoro-N-(5-fluoro-4-(piperazin-1-yl)pyridin-3-yl)pyrazolo[1,5-a]pyrimidine-3-carboxamide]", "Cisplatin Sensitization Assay": "+++ (Cisplatin sensitization value of <0.02 μM)"}
{"smiles": "Nc1nn2cc(F)cnc2c1C(=O)Nc1cncc(C2CC2)c1N1CCN([C@@H]2CCOC2)CC1", "note": "[I-N-119, (R)-2-amino-N-(5-cyclopropyl-4-(4-(tetrahydrofuran-3-yl)piperazin-1-yl)pyridin-3-yl)-6-fluoropyrazolo[1,5-a]pyrimidine-3-carboxamide]", "Cisplatin Sensitization Assay": "++ (Cisplatin sensitization value>0.02 μM but <0.2 μM)"}
{"smiles": "Nc1nn2cc(F)cnc2c1C(=O)Nc1cncc(C2CC2)c1N1CCN([C@H]2CCOC2)CC1", "note": "[I-N-120, (S)-2-amino-N-(5-cyclopropyl-4-(4-(tetrahydrofuran-3-yl)piperazin-1-yl)pyridin-3-yl)-6-fluoropyrazolo[1,5-a]pyrimidine-3-carboxamide]", "Cisplatin Sensitization Assay": "+++ (Cisplatin sensitization value of <0.02 μM)"}
{"smiles": "Nc1nn2cc(F)cnc2c1C(=O)Nc1cncc(F)c1N1CCN(C2CCOCC2)CC1", "note": "[I-N-121, 2-amino-6-fluoro-N-(5-fluoro-4-(4-(tetrahydro-2H-pyran-4-yl)piperazin-1-yl)pyridin-3-yl)pyrazolo[1,5-a]pyrimidine-3-carboxamide]", "Cisplatin Sensitization Assay": "+++ (Cisplatin sensitization value of <0.02 μM)"}
{"smiles": "Nc1nn2cc(F)cnc2c1C(=O)Nc1cncc(F)c1N1CCN(C2CCOC2)CC1", "note": "(centres unmarked) [I-N-122, 2-amino-6-fluoro-N-(5-fluoro-4-(4-(tetrahydrofuran-3-yl)piperazin-1-yl)pyridin-3-yl)pyrazolo[1,5-a]pyrimidine-3-carboxamide]", "Cisplatin Sensitization Assay": "++ (Cisplatin sensitization value>0.02 μM but <0.2 μM)"}
{"smiles": "Cc1cncc(NC(=O)c2c(N)nn3cc(F)cnc23)c1N1CCN(C2CCOCC2)CC1", "note": "[I-N-123, 2-amino-6-fluoro-N-(5-methyl-4-(4-(tetrahydro-2H-pyran-4-yl)piperazin-1-yl)pyridin-3-yl)pyrazolo[1,5-a]pyrimidine-3-carboxamide]", "Cisplatin Sensitization Assay": "++ (Cisplatin sensitization value>0.02 μM but <0.2 μM)"}
{"smiles": "Nc1nn2cc(F)cnc2c1C(=O)Nc1cncc(Cl)c1N1CCN(C2CCOC2)CC1", "note": "(centres unmarked) [I-N-124, 2-amino-N-(5-chloro-4-(4-(tetrahydrofuran-3-yl)piperazin-1-yl)pyridin-3-yl)-6-fluoropyrazolo[1,5-a]pyrimidine-3-carboxamide]", "Cisplatin Sensitization Assay": "+++ (Cisplatin sensitization value of <0.02 μM)"}
{"smiles": "Nc1nn2cc(F)cnc2c1C(=O)Nc1cncc(F)c1N1CCN([C@H]2CCOC2)CC1", "note": "[I-N-125, (S)-2-amino-6-fluoro-N-(5-fluoro-4-(4-(tetrahydrofuran-3-yl)piperazin-1-yl)pyridin-3-yl)pyrazolo[1,5-a]pyrimidine-3-carboxamide]", "Cisplatin Sensitization Assay": "+++ (Cisplatin sensitization value of <0.02 μM)"}
{"smiles": "Nc1nn2cc(F)cnc2c1C(=O)Nc1cncc(Cl)c1N1CCNCC1", "note": "[I-N-126, 2-amino-N-(5-chloro-4-(piperazin-1-yl)pyridin-3-yl)-6-fluoropyrazolo[1,5-a]pyrimidine-3-carboxamide]", "Cisplatin Sensitization Assay": "+++ (Cisplatin sensitization value of <0.02 μM)"}
{"smiles": "COCCN1CCN(c2c(F)cncc2NC(=O)c2c(N)nn3cc(F)cnc23)CC1", "note": "[I-N-127, 2-amino-6-fluoro-N-(5-fluoro-4-(4-(2-methoxyethyl)piperazin-1-yl)pyridin-3-yl)pyrazolo[1,5-a]pyrimidine-3-carboxamide]", "Cisplatin Sensitization Assay": "+++ (Cisplatin sensitization value of <0.02 μM)"}
{"smiles": "CN1CCC(C(=O)N2CCN(c3c(F)cncc3NC(=O)c3c(N)nn4cc(F)cnc34)CC2)CC1", "note": "[I-N-128, 2-amino-6-fluoro-N-(5-fluoro-4-(4-(1-methylpiperidine-4-carbonyl)piperazin-1-yl)pyridin-3-yl)pyrazolo[1,5-a]pyrimidine-3-carboxamide]", "Cisplatin Sensitization Assay": "+++ (Cisplatin sensitization value of <0.02 μM)"}
{"smiles": "Nc1nn2cc(F)cnc2c1C(=O)Nc1cncc(F)c1N1CCN(C(=O)C2CN3CCC2CC3)CC1", "note": "(centres unmarked) [I-N-130, 2-amino-6-fluoro-N-(5-fluoro-4-(4-(quinuclidine-3-carbonyl)piperazin-1-yl)pyridin-3-yl)pyrazolo[1,5-a]pyrimidine-3-carboxamide]", "Cisplatin Sensitization Assay": "++ (Cisplatin sensitization value>0.02 μM but <0.2 μM)"}
{"smiles": "CN1CC[C@@H](OC2CCN(c3ccncc3NC(=O)c3c(N)nn4cc(F)cnc34)CC2)C1", "note": "[I-N-131]", "Cisplatin Sensitization Assay": "+++ (Cisplatin sensitization value of <0.02 μM)"}
{"smiles": "CN1CC[C@@H](OC2CCN(c3c(F)cncc3NC(=O)c3c(N)nn4cc(F)cnc34)CC2)C1", "note": "[I-N-132, (R)-2-amino-6-fluoro-N-(5-fluoro-4-(4-((1-methylpyrrolidin-3-yl)oxy)piperidin-1-yl)pyridin-3-yl)pyrazolo[1,5-a]pyrimidine-3-carboxamide]", "Cisplatin Sensitization Assay": "+++ (Cisplatin sensitization value of <0.02 μM)"}
{"smiles": "CN1CCN(c2ccncc2NC(=O)c2c(N)nn3cc(F)cnc23)CC12CCOCC2", "note": "[I-N-133, 2-amino-6-fluoro-N-(4-(1-methyl-9-oxa-1,4-diazaspiro[5.5]undecan-4-yl)pyridin-3-yl)pyrazolo[1,5-a]pyrimidine-3-carboxamide]", "Cisplatin Sensitization Assay": "++ (Cisplatin sensitization value>0.02 μM but <0.2 μM)"}
{"smiles": "Nc1nn2cc(F)cnc2c1C(=O)Nc1cncc(F)c1N1CCN(C(=O)C23CCN(CC2)CC3)CC1", "note": "[I-N-134, 2-amino-6-fluoro-N-(5-fluoro-4-(4-(quinuclidine-4-carbonyl)piperazin-1-yl)pyridin-3-yl)pyrazolo[1,5-a]pyrimidine-3-carboxamide]", "Cisplatin Sensitization Assay": "+ (Cisplatin sensitization value>0.2 μM but <5 μM)"}
{"smiles": "Nc1nn2cc(F)cnc2c1C(=O)Nc1cncc(F)c1N1CCN2CCOC[C@H]2C1", "note": "[I-N-135, (R)-2-amino-6-fluoro-N-(5-fluoro-4-(hexahydropyrazino[2,1-c][1,4]oxazin-8(1H)-yl)pyridin-3-yl)pyrazolo[1,5-a]pyrimidine-3-carboxamide]", "Cisplatin Sensitization Assay": "+++ (Cisplatin sensitization value of <0.02 μM)"}
{"smiles": "Nc1nn2cc(F)cnc2c1C(=O)Nc1cnccc1N1CCN2C(=O)COCC2C1", "note": "(centres unmarked) [I-N-136, 2-amino-6-fluoro-N-(4-(4-oxohexahydropyrazino[2,1-c][1,4]oxazin-8(1H)-yl)pyridin-3-yl)pyrazolo[1,5-a]pyrimidine-3-carboxamide]", "Cisplatin Sensitization Assay": "++ (Cisplatin sensitization value>0.02 μM but <0.2 μM)"}
{"smiles": "Nc1nn2cc(F)cnc2c1C(=O)Nc1cncc(F)c1N1CCN2CCOC[C@@H]2C1", "note": "[I-N-137, (S)-2-amino-6-fluoro-N-(5-fluoro-4-(hexahydropyrazino[2,1-c][1,4]oxazin-8(1H)-yl)pyridin-3-yl)pyrazolo[1,5-a]pyrimidine-3-carboxamide]", "Cisplatin Sensitization Assay": "++ (Cisplatin sensitization value>0.02 μM but <0.2 μM)"}
{"smiles": "CN1CCN(c2c(F)cncc2NC(=O)c2c(N)nn3cc(C(C)(C)C#N)cnc23)CC1", "note": "[I-N-138, 2-amino-6-(2-cyanopropan-2-yl)-N-(5-fluoro-4-(4-methylpiperazin-1-yl)pyridin-3-yl)pyrazolo[1,5-a]pyrimidine-3-carboxamide]", "Cisplatin Sensitization Assay": "++ (Cisplatin sensitization value>0.02 μM but <0.2 μM)"}
{"smiles": "CC(C)(O)CN1CCN(c2c(F)cncc2NC(=O)c2c(N)nn3cc(F)cnc23)CC1", "note": "[I-N-139, 2-amino-6-fluoro-N-(5-fluoro-4-(4-(2-hydroxy-2-methylpropyl)piperazin-1-yl)pyridin-3-yl)pyrazolo[1,5-a]pyrimidine-3-carboxamide]", "Cisplatin Sensitization Assay": "+++ (Cisplatin sensitization value of <0.02 μM)"}
{"smiles": "CN1CCN(C(=O)N2CCN(c3c(F)cncc3NC(=O)c3c(N)nn4cc(F)cnc34)CC2)CC1", "note": "[I-N-140, 2-amino-6-fluoro-N-(5-fluoro-4-(4-(4-methylpiperazine-1-carbonyl)piperazin-1-yl)pyridin-3-yl)pyrazolo[1,5-a]pyrimidine-3-carboxamide]", "Cisplatin Sensitization Assay": "+++ (Cisplatin sensitization value of <0.02 μM)"}
{"smiles": "Nc1nn2cc(F)cnc2c1C(=O)Nc1cnccc1N1CCOCC1", "note": "[I-N-141, 2-amino-6-fluoro-N-(4-morpholinopyridin-3-yl)pyrazolo[1,5-a]pyrimidine-3-carboxamide]", "Cisplatin Sensitization Assay": "+++ (Cisplatin sensitization value of <0.02 μM)"}
{"smiles": "CC(C)(C#N)c1cnc2c(C(=O)Nc3cnccc3N3CCN(C4COC4)CC3)c(N)nn2c1", "note": "[I-N-142, 2-amino-6-(2-cyanopropan-2-yl)-N-(4-(4-(oxetan-3-yl)piperazin-1-yl)pyridin-3-yl)pyrazolo[1,5-a]pyrimidine-3-carboxamide]", "Cisplatin Sensitization Assay": "++ (Cisplatin sensitization value>0.02 μM but <0.2 μM)"}
{"smiles": "CC(C#N)c1cnc2c(C(=O)Nc3cnccc3N3CCN(C4COC4)CC3)c(N)nn2c1", "note": "(centres unmarked) [I-N-143, 2-amino-6-(1-cyanoethyl)-N-(4-(4-(oxetan-3-yl)piperazin-1-yl)pyridin-3-yl)pyrazolo[1,5-a]pyrimidine-3-carboxamide]", "Cisplatin Sensitization Assay": "++ (Cisplatin sensitization value>0.02 μM but <0.2 μM)"}
{"smiles": "CC(C)(C#N)c1cnc2c(C(=O)Nc3cncc(F)c3N3CCN(C4COC4)CC3)c(N)nn2c1", "note": "[I-N-144]", "Cisplatin Sensitization Assay": "+++ (Cisplatin sensitization value of <0.02 μM)"}
{"smiles": "CN(C)S(=O)(=O)C1CCN(c2c(F)cncc2NC(=O)c2c(N)nn3cc(F)cnc23)CC1", "note": "[I-N-146, 2-amino-N-(4-(4-(N,N-dimethylsulfamoyl)piperidin-1-yl)-5-fluoropyridin-3-yl)-6-fluoropyrazolo[1,5-a]pyrimidine-3-carboxamide]", "Cisplatin Sensitization Assay": "+++ (Cisplatin sensitization value of <0.02 μM)"}
{"smiles": "Nc1nn2cc(F)cnc2c1C(=O)Nc1cncc(F)c1N1CCC(N2CCCC2=O)CC1", "note": "[I-N-147, 2-amino-6-fluoro-N-(5-fluoro-4-(4-(2-oxopyrrolidin-1-yl)piperidin-1-yl)pyridin-3-yl)pyrazolo[1,5-a]pyrimidine-3-carboxamide]", "Cisplatin Sensitization Assay": "+++ (Cisplatin sensitization value of <0.02 μM)"}
{"smiles": "CN1CCC(N(C)S(=O)(=O)C2CCN(c3c(F)cncc3NC(=O)c3c(N)nn4cc(F)cnc34)CC2)CC1", "note": "[I-N-148, 2-amino-6-fluoro-N-(5-fluoro-4-(4-(N-methyl-N-(1-methylpiperidin-4-yl)sulfamoyl)piperidin-1-yl)pyridin-3-yl)pyrazolo[1,5-a]pyrimidine-3-carboxamide]", "Cisplatin Sensitization Assay": "+++ (Cisplatin sensitization value of <0.02 μM)"}
